# Like-named read-outs stand apart in the source and are kept apart here.
# Key:
# CD-1 male mice = assay: Phenylquinone writhing analgesic assay; type: in vivo; conditions: Mus musculus; mPEGn-O-HydroxyCodone series
# Protocol: The assay utilized CD-1 male mice (5-8 mice per group), each mouse being approximately 0.020-0.030 kg on the study day. Mice were treated according to standard protocols. Mice were given a single “pretreatment” dose of a compound lacking covalent attachment of a water-soluble, non-peptidic oligomer (i.e., non-PEG oligomer-modified parent molecule), a corresponding version comprising the compound covalently attached to a water-soluble, non-peptidic oligomer (i.e., the conjugate), or control solution (IV, SC, IP or orally) thirty minutes prior to the administration of the phenylquinone (PQ) solution. Each animal was given an IP injection of an irritant (phenylquinone, PQ) that induces “writhing” which may include: contractions of the abdomen, twisting and turning of the trunk, arching of the back, and the extension of the hindlimbs. Each animal was given an IP injection of PQ (1 mg/kg PQ, 0.1 mL/10 g bodyweight). After the injection, the animals were returned to their observation enclosure and their behavior was observed. Contractions were counted between 35 and 45 minutes after the ‘pretreatment”. The animals were used once. Each tested article was dosed at a range between 0.1 and 100 mg/kg (n=5-10 animals/dose).
# human mu opioid receptor [1] = target: T1, human mu opioid receptor (Homo sapiens, UniProt P35372); assay: cell-based; conditions: for Emax: read-out: % max effect, mu opioid receptor
# T1 construct: expressed in transfected cells; host or cells: CHO cells
# Protocol: (§1) Studies were conducted in CHO cells heterologously expressing the cloned human mu, kappa or delta opioid receptors. cAMP was measured using a cAMP HiRange homogenous time-resolved fluorescence assay (HTRF Assay), that is based on a competitive immunoassay principle (Cisbio, Cat.#62AM6PEC).
# (§2) Briefly, suspensions of cells expressing either the mu, kappa or delta opioid receptors were prepared in buffer containing 0.5 mM isobutyl-methyl xanthine (IBMX). […] EC50 values were calculated for each compound from a sigmoidal dose-response plot of concentrations versus maximum response. To determine if the compounds behaved as full or partial agonists in the system, the maximal response at the highest tested concentrations of compounds were compared to that produced by a known full agonist.
# [2] = Pharmacokinetics following intravenous (IV) dosing; type: in vivo, Sprague-Dawley rats; set-up: Cmax: unit: ng/mL; conditions: for Vd: read-out: Vss
# Source text: (§3) There were 3 rats/group. All animals were food fasted overnight. […] The predose sample was collected from the JVC.
# (§4) Following the last collection point, the animals were euthanized.
# human mu opioid receptor [3] = target: T1, human mu opioid receptor; assay: biochemical; type: binding
# Protocol: (§5) Radioligand displacement was measured using scintillation proximity assays (SPA).
# (§6) Briefly, serial dilutions of the test compounds were placed in a 96-well plate to which were added SPA beads, membrane and radioligand. The assay conditions for each opioid receptor subtype are described in Table 10 below. The plates were incubated for 8 hours-overnight at room temperature, spun at 1000 rpm to pellet the SPA beads, and radioactivity was measured using the TopCount® microplate Scintillation counter. Specific binding at each concentration of test compound was calculated by subtracting the non-specific binding measured in the presence of excess cold ligand. IC50 values were obtained by non-linear regression of specific binding versus concentration curves and Ki values were calculated using Kd values that were experimentally pre-determined for each lot of membrane preparations.
# [4] = Pharmacokinetics following oral (PO) dosing; type: in vivo, Sprague-Dawley rats; set-up: Cmax: unit: ng/mL
# Source text: as §3, §4
# mice = assay: Oral dose giving maximal analgesia; type: in vivo
# Male CD-1 mice = assay: Assessment of CNS side effects in mice (Straub tail, muscle rigidity, pinna reflex); conditions: for Loss Pinna, number of animals responding (N=2) / Muscle Rigidity, number of animals responding (N=2) / Straub Tail Effect, number of animals responding (N=2): oral
# Source text: The objective of this study was to provide an approximation of the side effect profile of various oligomeric conjugates for comparison to the parent compounds by measuring various gross behavioral and physiological signs following administration of compound.
# Additional evaluations included muscle rigidity and pinna reflex.
# Male CD-1 mice from Charles River Laboratories, Raleigh, N.C., weighing from 16-18 grams were maintained on a regular light/dark cycle (lights on 0600-1800) with ad libitum food and water for 1 week before commencement of testing. N=2 per treatment condition, i.e., separate mice for each dose of each test article, injection was performed via a 25-gauge ⅝-inch needle on a 1-mL tuberculin syringe for the s.c. route and a 22-gauge stainless steel mouse feeding tube for the p.o. route (Becton, Dickinson & Co., Franklin Lakes, N.J.). Each treatment condition was divided about evenly between two observers. […] Test article was administered (s.c. or p.o., and the mouse was placed immediately in the observation chamber). One-half, 1, 2, and 3 hours later, the animal was observed undisturbed for gross signs such as locomotor ataxia, tremor, hyperactivity, hypoactivity, convulsions, hindlimb splay, and Straub tail, and then removed and assessed for muscle tone (normal, rigid, flaccid), pinna reflex (presence or absence), righting reflex (intact or lost), and placing (whether or not the forepaws are extended when the mouse is placed near a surface).
# Each of the tables show the number of animals responding at each dose, where N=2. […] A bolded value indicates the lowest dose at which a response was detected.
# squirrel monkeys = assay: Monkey self-administration model of addictive potential
# Source text: Dose-related effects of the test articles were examined, using two or more doses of each drug in 3-4 subjects in a double alternation schedule in which each unit dose (or vehicle) was used in two consecutive sessions before a change in unit dose.
# Addictive potential of opioid compounds and opioid conjugates of the invention may be assessed through the use of squirrel monkey models as known in the art.
# Under the double alternation schedule, each unit dose (or vehicle) was available for intravenous self-administration for two consecutive sessions before the unit dose was changed. In this way, it was possible to establish the function relating unit dose of intravenous drug to (i) number of injections per session, and/or (ii) the percentage of total responses that occur on the lever leading to self-administration (injection-lever responding, % ILR). Unit doses of drugs ranged from 0.01 to 3.2 mg/kg/injection.
# [5] = target: T2, human kappa opioid receptor (Homo sapiens, UniProt P41145); assay: cell-based; conditions: maximal response at the highest tested concentration; read-out: % max effect, kappa opioid receptor
# T2 construct: expressed in transfected cells; host or cells: CHO cells
# Protocol: as §1, §2
# [6] = target: T2, human kappa opioid receptor; assay: biochemical; type: binding
# Protocol: as §5, §6
# [7] = male, Sprague-Dawley, rat, plasma, hydroxycodone series, 1 mg/kg IV, Mean ± SD
# [8] = male, Sprague-Dawley, rat, plasma, po, 5 mg/kg
# [9] = male, Sprague-Dawley, rat, plasma, hydroxycodone series, 5.0 mg/kg oral, Mean ± SD
# [10] = male, Sprague-Dawley, rat, plasma, hydroxycodone series, 5.0 mg/kg oral, Mean ± SD, * n = 2
# [11] = male, Sprague-Dawley, rat, plasma, hydroxycodone series, 5.0 mg/kg oral, Mean ± SD, * n = 2, read-out: T1/2(z)
# [12] = male, Sprague-Dawley, rat, plasma, hydroxycodone series, 5.0 mg/kg oral, Mean ± SD, read-out: Cmax
# [13] = male, Sprague-Dawley, rat, plasma, hydroxycodone series, 5.0 mg/kg oral, median value, read-out: Tmax (converted)
# [14] = maximal response at the highest tested concentration
# [15] = male, Sprague-Dawley, rat, plasma, iv, 1 mg/kg
# [16] = CHO-K1 membranes, [3H]DAMGO 6 nM, read-out: Ki, Mu opioid receptor
# [17] = hydroxycodone series, 1 mg/kg IV, Mean ± SD
# [18] = hydroxycodone series, 5.0 mg/kg oral, Mean ± SD
# T1 sequence (P35372 whole entry): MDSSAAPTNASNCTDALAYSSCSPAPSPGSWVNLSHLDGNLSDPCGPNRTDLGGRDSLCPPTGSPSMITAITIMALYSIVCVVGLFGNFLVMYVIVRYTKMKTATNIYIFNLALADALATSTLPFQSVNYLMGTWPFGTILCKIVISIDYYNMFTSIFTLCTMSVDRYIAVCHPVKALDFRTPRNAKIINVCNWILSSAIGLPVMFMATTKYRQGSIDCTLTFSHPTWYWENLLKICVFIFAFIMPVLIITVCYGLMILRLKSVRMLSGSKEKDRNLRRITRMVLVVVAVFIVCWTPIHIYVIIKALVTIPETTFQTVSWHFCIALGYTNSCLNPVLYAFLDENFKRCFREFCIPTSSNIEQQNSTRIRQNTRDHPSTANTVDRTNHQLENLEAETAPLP
# T2 sequence (P41145 whole entry): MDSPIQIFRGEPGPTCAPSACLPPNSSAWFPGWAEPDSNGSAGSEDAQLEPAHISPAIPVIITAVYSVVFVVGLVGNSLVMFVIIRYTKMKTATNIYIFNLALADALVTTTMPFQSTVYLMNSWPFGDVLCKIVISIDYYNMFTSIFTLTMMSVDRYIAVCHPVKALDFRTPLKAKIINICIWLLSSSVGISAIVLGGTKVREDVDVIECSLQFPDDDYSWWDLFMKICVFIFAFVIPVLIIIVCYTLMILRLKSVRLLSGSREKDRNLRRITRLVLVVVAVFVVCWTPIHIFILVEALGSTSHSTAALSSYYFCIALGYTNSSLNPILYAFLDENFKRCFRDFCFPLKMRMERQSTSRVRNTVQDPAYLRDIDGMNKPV
structure (smiles),measurement,setting,value
"COCCOCCOCCOCCOC1CCC2(O)C3Cc4ccc(OC)c5c4C2(CCN3C)C1O5 (stereo not drawn) [α-6-mPEG4-O-hydroxycodone, α-6-mPEG4-O-oxycodone]",ED50,CD-1 male mice,17.3 mg/kg
same,EC50,human mu opioid receptor [1],3.72 µM
same,Emax,human mu opioid receptor [1],109%
same,AUC,[2]; [7],192 ng·h/mL
same,AUC(0-inf),[2]; [7],193 ng·h/mL
same,MRT last,[2]; [7],35.6 min
same,clearance,[2]; [7],86.5 ± 6.36 mL/min/kg
same,Cmax,"[2]; male, Sprague-Dawley, rat, plasma, hydroxycodone series, 1 mg/kg IV, Mean ± SD, read-out: Cmax",537 ± 31 ng/mL
same,half-life,"[2]; male, Sprague-Dawley, rat, plasma, hydroxycodone series, 1 mg/kg IV, Mean ± SD, read-out: T1/2(z)",43.6 ± 3.27 min
same,Vd,[2]; [7],3.34 ± 0.113 L/kg
same,Ki,human mu opioid receptor [3],0.893 µM
same,bioavailability,[4]; [8],11%
same,AUC,[4]; [9],106 ng·h/mL
same,MRT last,[4]; [9],96.6 min
same,AUC(0-inf),[4]; [10],88 ng·h/mL
same,half-life,[4]; [11],70.3 min
same,Cmax,[4]; [12],55.8 ± 4.69 ng/mL
same,Tmax,[4]; [13],15 min
"CN1CC[C@]23c4c5ccc(O)c4O[C@H]2[C@@H](O)C=C[C@H]3[C@H]1C5 [Morphine, morphine, reference compound]",oral dose at which maximal analgesia was obtained,mice,20 mg/kg
same,mice showing the straub tail response,Male CD-1 mice; oral doses up to 100 mg/kg,100%
same,"Loss Pinna, number of animals responding (N=2)",Male CD-1 mice; 1 mg/kg,0
same,"Muscle Rigidity, number of animals responding (N=2)",Male CD-1 mice; 1 mg/kg,0
same,"Straub Tail Effect, number of animals responding (N=2)",Male CD-1 mice; 1 mg/kg,0
same,"Loss Pinna, number of animals responding (N=2)",Male CD-1 mice; 3 mg/kg,2
same,"Muscle Rigidity, number of animals responding (N=2)",Male CD-1 mice; 3 mg/kg,0
same,"Straub Tail Effect, number of animals responding (N=2)",Male CD-1 mice; 3 mg/kg,2
same,"Loss Pinna, number of animals responding (N=2)",Male CD-1 mice; 10 mg/kg,1
same,"Muscle Rigidity, number of animals responding (N=2)",Male CD-1 mice; 10 mg/kg,1
same,"Straub Tail Effect, number of animals responding (N=2)",Male CD-1 mice; 10 mg/kg,2
same,"Loss Pinna, number of animals responding (N=2)",Male CD-1 mice; 30 mg/kg,2
same,"Muscle Rigidity, number of animals responding (N=2)",Male CD-1 mice; 30 mg/kg,2
same,"Straub Tail Effect, number of animals responding (N=2)",Male CD-1 mice; 30 mg/kg,2
same,"Loss Pinna, number of animals responding (N=2)",Male CD-1 mice; 100 mg/kg,2
same,"Muscle Rigidity, number of animals responding (N=2)",Male CD-1 mice; 100 mg/kg,2
same,"Straub Tail Effect, number of animals responding (N=2)",Male CD-1 mice; 100 mg/kg,1
same,"Loss Pinna, number of animals responding (N=2)",Male CD-1 mice; 300 mg/kg,2
same,"Muscle Rigidity, number of animals responding (N=2)",Male CD-1 mice; 300 mg/kg,2
same,"Straub Tail Effect, number of animals responding (N=2)",Male CD-1 mice; 300 mg/kg,1
same,injection lever responses (% ILR),squirrel monkeys; 0.03 mg/kg/injection,100%
same,subjects showing addictive behavior,squirrel monkeys; 0.1 mg/kg/injection,100%
COCCOCCOCCOCCOCCOC1C=CC2C3Cc4ccc(OC)c5c4C2(CCN3C)C1O5 (stereo not drawn) [α-6-mPEG5-O-codeine],Emax,[5],60%
same,Emax,human mu opioid receptor [1]; [14],95%
same,AUC,[2]; [15],192 ng·h/mL
same,AUC(0-inf),[2]; [15],195 ng·h/mL
same,MRT last,[2]; [15],31.8 min
same,clearance,[2]; [15],86.2 ± 7.04 mL/min/kg
same,Cmax,"[2]; male, Sprague-Dawley, rat, plasma, iv, 1 mg/kg, read-out: Cmax",533 ± 38.9 ng/mL
same,half-life,"[2]; male, Sprague-Dawley, rat, plasma, iv, 1 mg/kg, read-out: T1/2(2)",42.7 ± 3.56 min
same,Vd,[2]; [15],2.95 ± 0.157 L/kg
same,Ki,[6],59.1 µM
same,Ki,human mu opioid receptor [3]; [16],2.43 µM
same,AUC,[4]; [8],91.8 ng·h/mL
same,AUC(0-inf),[4]; [8],98.2 ng·h/mL
same,MRT last,[4]; [8],108 min
same,bioavailability,[4]; [8],10.1%
same,Cmax,"[4]; male, Sprague-Dawley, rat, plasma, po, 5 mg/kg, read-out: Cmax",48.7 ± 10.8 ng/mL
same,half-life,"[4]; male, Sprague-Dawley, rat, plasma, po, 5 mg/kg, read-out: T1/2(2)",125 ± 63.7 min
same,Tmax,"[4]; male, Sprague-Dawley, rat, plasma, po, 5 mg/kg, read-out: Tmax (converted)",15 min
"COc1ccc2c3c1O[C@H]1C(=O)CC[C@@]4(O)[C@@H](C2)N(C)CC[C@]314 [Oxycodone, oxycodone, reference compound]",ED50,CD-1 male mice,0.619 mg/kg
same,AUCall,[2]; [17],12800 ± 1090 ng·min/mL
same,AUCinf,[2]; [17],13000 ± 1070 ng·min/mL
same,CL,[2]; [17],77.1 ± 6.26 mL/min/kg
same,Cmax,[2]; [17],495 ± 56.0 ng/mL
same,MRTlast,[2]; [17],37.0 ± 1.28 min
same,T1/2(z),[2]; [17],47.0 ± 3.99 min
same,AUCall,[4]; [18],4520 ± 1660 ng·min/mL
same,Cmax,[4]; [18],25.5 ± 1.86 ng/mL
same,MRTlast,[4]; [18],179 ± 17.4 min
same,Tmax,"[4]; hydroxycodone series, 5.0 mg/kg oral, median value",15.0 min
same,oral dose at which maximal analgesia was obtained,mice,14 mg/kg
same,subjects showing addictive behavior,squirrel monkeys; 0.01 mg/kg/injection,25%
same,injection lever responses (% ILR),squirrel monkeys; 0.03 mg/kg/injection,100%
same,subjects showing addictive behavior,squirrel monkeys; 0.03 mg/kg/injection,100%
same,injection lever responses (% ILR),squirrel monkeys; 0.1 mg/kg/injection,100%
"COCCOC1CCC2(O)C3Cc4ccc(OC)c5c4C2(CCN3C)C1O5 (stereo not drawn) [α-6-mPEG1-O-hydroxycodone, α-6-mPEG1-O-oxycodone]",ED50,CD-1 male mice,6.06 mg/kg
same,Emax,human mu opioid receptor [1]; [14],102%
same,EC50,"human mu opioid receptor [1]; read-out: EC50, mu opioid receptor",3.84 µM
same,Ki,human mu opioid receptor [3]; [16],0.654 µM
same,bioavailability,[4]; [8],2.1%
same,AUC,[4]; [9],17.5 ng·h/mL
same,MRT last,[4]; [9],66.8 min
same,AUC(0-inf),[4]; [10],19.2 ng·h/mL
same,half-life,[4]; [11],57.7 min
same,Cmax,[4]; [12],14.3 ± 6.43 ng/mL
same,Tmax,[4]; [13],15 min
